The numbers were not newly measured in US20090092650A1, “Sustained Delivery Formulations of Octreotide Compounds” (priority 2004, published 2009), which cites them from elsewhere.

For this data set the following is noted: Marbach et al. 1992.

Take `C[C@@H](O)[C@@H]1NC(=O)[C@H](CCCCN)NC(=O)[C@@H](Cc2c[nH]c3ccccc23)NC(=O)[C@H](Cc2ccccc2)NC(=O)[C@@H](NC(=O)[C@H](N)Cc2ccccc2)CSSC[C@@H](C(=O)N[C@H](CO)[C@@H](C)O)NC1=O` [octreotide]: the Therapeutic plasma level was 0.3 ng/mL.
